Like-named read-outs stand apart in the source and are kept apart here.

The target in assay [1] is Beta Secretase enzyme (BACE) (Homo sapiens, UniProt P56817). The experiment in a line: In vitro enzymatic BACE FRET (fluorescence resonance energy transfer) assay. The format is biochemical. Particulars: average IC50, enzyme assay; read-out: BACE 1 FRET assay. The method in brief:
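Buffer 0.05 M acetate pH 4.2, 10% DMSO final, 100 uM genapol (sub-CMC); start with 50 nM FRET substrate; 1 h incubation; Tris stop; fluorescence read.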

In assay [2] the test system is Aβ40 in conditioned medium of cells stably expressing Amyloid Precursor Protein (APP). Put plainly: In vitro BACE cell-based assay (Aβ40 in conditioned medium, sandwich ELISA). The conditions noted are these: Homo sapiens, read-out: HEK cell assay. The method in brief:
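Quantification relied on pAb40/6E10 sandwich ELISA with Europium fluorescence counts, and IC50 was fitted versus concentration.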
For orientation: ELISA stands for enzyme-linked immunosorbent assay.

Where [3] appears, read: HEK293, average IC50, HEK cells.

Chain of Beta Secretase enzyme (BACE) (P56817 46-501, species assumed): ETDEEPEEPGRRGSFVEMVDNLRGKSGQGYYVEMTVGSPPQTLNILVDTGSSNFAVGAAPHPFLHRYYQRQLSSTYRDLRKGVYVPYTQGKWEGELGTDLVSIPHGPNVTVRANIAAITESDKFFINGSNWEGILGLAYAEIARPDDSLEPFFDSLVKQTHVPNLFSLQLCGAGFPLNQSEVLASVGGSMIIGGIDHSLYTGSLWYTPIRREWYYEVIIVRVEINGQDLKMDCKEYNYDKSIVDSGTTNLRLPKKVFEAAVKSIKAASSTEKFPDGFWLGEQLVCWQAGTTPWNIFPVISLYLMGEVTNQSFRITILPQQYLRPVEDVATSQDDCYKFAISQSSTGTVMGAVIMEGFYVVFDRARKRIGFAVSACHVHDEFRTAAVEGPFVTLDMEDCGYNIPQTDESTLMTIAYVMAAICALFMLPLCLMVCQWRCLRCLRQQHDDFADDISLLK

With `NC1=N[C@@]2(CO1)c1cc(O)ccc1Oc1c(F)cc(-n3cccn3)cc12` [Example 665, (4S)-2-amino-5′-fluoro-7′-(1H-pyrazol-1-yl)spiro[1,3-oxazole-4,9′-xanthen]-2′-ol], the IC50 in assay [1] worked out at 1100 nM; in assay [2] (setting [3]), 4580 nM.

Consider `CC#Cc1cncc(-c2ccc3c(c2)[C@@]2(COC(N)=N2)c2cc(-c4ccnc(C)c4)nc(F)c2O3)c1` [Example 740, (5S)-1-fluoro-3-(2-methyl-4-pyridinyl)-7-(5-(1-propyn-1-yl)-3-pyridinyl)spiro[chromeno[2,3-c]pyridine-5,4′-[1,3]oxazol]-2′-amine], for which the IC50 in assay [1] is 0.8 nM; in assay [2] (HEK293, average IC50), 8 nM.

Take `NC1=N[C@@]2(CO1)c1cc(-c3cncc(F)c3)ccc1Oc1c2cc(N2CC[C@H](F)C2)nc1F` [Example 926, (5S)-1-fluoro-7-(5-fluoro-3-pyridinyl)-3-((3S)-3-fluoro-1-pyrrolidinyl)spiro[chromeno[2,3-c]pyridine-5,4′-[1,3]oxazol]-2′-amine]: the IC50 in assay [1] worked out at 0.3 nM; in assay [2] (setting [3]) it was 8 nM.

As to `NC1=N[C@@]2(CO1)c1cc(-c3cccnc3F)ccc1Oc1c2cc(N2CC[C@H](F)C2)nc1F` [Example 917, (5S)-1-fluoro-7-(2-fluoro-3-pyridinyl)-3-((3S)-3-fluoro-1-pyrrolidinyl)spiro[chromeno[2,3-c]pyridine-5,4′-[1,3]oxazol]-2′-amine], the figures for the IC50 in assay [1] and in assay [2] (setting [3]) were 0.3 nM and 5 nM, respectively.

Consider `CC1(C)C[C@@H](c2cnc3c(c2)[C@]2(COC(N)=N2)c2cc(-c4cccc(C#N)c4)ccc2O3)CCO1` [Example 472, 3-((5S)-2′-amino-3-((4S)-2,2-dimethyltetrahydro-2H-pyran-4-yl)spiro[chromeno[2,3-b]pyridine-5,4′-[1,3]oxazol]-7-yl)benzonitrile], for which the IC50 in assay [1] was found to be 2.3 nM; in assay [2] (setting [3]) it was 4.4 nM.

For the compound `CC1(C)CC(c2cnc3c(c2)[C@@]2(COC(N)=N2)c2c(ccc(-c4cncnc4)c2F)O3)=CCO1` [Example 355, (5S)-3-(2,2-dimethyl-3,6-dihydro-2H-pyran-4-yl)-6-fluoro-7-(5-pyrimidinyl)spiro[chromeno[2,3-b]pyridine-5,4′-[1,3]oxazol]-2′-amine], the IC50 in assay [1] is 407 nM; in assay [2] (HEK293, average IC50), 1280 nM.

For `CC#Cc1cncc(-c2ccc3c(c2)[C@@]2(CSC(N)=N2)c2cc(-c4ccnc(F)c4)cnc2O3)c1` [Example 781, (5S)-3-(2-fluoro-4-pyridinyl)-7-(5-(1-propyn-1-yl)-3-pyridinyl)spiro[chromeno[2,3-b]pyridine-5,4′-[1,3]thiazol]-2′-amine], the IC50 in assay [1] was 0.3 nM; in assay [2] (HEK293, average IC50) it was 3 nM.

`Cn1cc(-c2cccc(-c3ccc4c(c3)[C@@]3(COC(N)=N3)c3cc(C5=CCOCC5)ncc3O4)c2)cn1` [Example 243, (5S)-3-(3,6-dihydro-2H-pyran-4-yl)-7-(3-(1-methyl-1H-pyrazol-4-yl)phenyl)spiro[chromeno[2,3-c]pyridine-5,4′-[1,3]oxazol]-2′-amine]: the IC50 turned out to be 19.5 nM in assay [1] and 287 nM in assay [2] (HEK293, average IC50).

With `NC1=N[C@@]2(CO1)c1cc(-c3cccnc3F)ccc1Oc1ncc(N3CCC(F)(F)CC3)cc12` [Example 478, (5S)-3-(4,4-difluoro-1-piperidinyl)-7-(2-fluoro-3-pyridinyl)spiro[chromeno[2,3-b]pyridine-5,4′-[1,3]oxazol]-2′-amine], the IC50 in assay [1] came out at 2.1 nM; in assay [2] (setting [3]) it was 14.3 nM.

For `NC1=N[C@@]2(CO1)c1cc(OCc3cccnc3)ccc1Oc1ncc(C3=CCOCC3)cc12` [Example 971, (5S)-3-(3,6-dihydro-2H-pyran-4-yl)-7-(3-pyridinylmethoxy)spiro[chromeno[2,3-b]pyridine-5,4′-[1,3]oxazol]-2′-amine], the IC50 in assay [1] is 33.6 nM; in assay [2] (HEK293, average IC50), 154 nM.

On to `NC1=N[C@@]2(CO1)c1cc(-c3cccnc3F)ccc1Oc1ncc(Br)cc12` [Example 1018, (5S)-3-bromo-7-(2-fluoro-3-pyridinyl)spiro[chromeno[2,3-b]pyridine-5,4′-[1,3]oxazol]-2′-amine], for which the IC50 in assay [1] is 577 nM; in assay [2] (HEK293, average IC50), 563 nM.

On to `Cn1cc(-c2cc3c(cc2F)Oc2ccc(-c4cccnc4F)cc2[C@@]32COC(N)=N2)cn1` [Example 311, (4S)-3′-fluoro-7′-(2-fluoro-3-pyridinyl)-2′-(1-methyl-1H-pyrazol-4-yl)spiro[1,3-oxazole-4,9′-xanthen]-2-amine], for which the IC50 in assay [1] amounted to 3.9 nM; in assay [2] (HEK293, average IC50), 19.5 nM.

Take `N#Cc1ccncc1-c1ccc2c(c1)[C@@]1(COC(N)=N1)c1cc(C3=CCOCC3)ncc1O2` [Example 656, 3-((5S)-2′-amino-3-(3,6-dihydro-2H-pyran-4-yl)spiro[chromeno[2,3-c]pyridine-5,4′-[1,3]oxazol]-7-yl)-4-pyridinecarbonitrile]: the IC50 in assay [1] turned out to be 10.4 nM; in assay [2] (setting [3]), 66 nM.

`NC1=N[C@@]2(CO1)c1cc(OCc3ccccn3)ccc1Oc1ncc(C3=CCOCC3)cc12` [Example 972, (5S)-3-(3,6-dihydro-2H-pyran-4-yl)-7-(2-pyridinylmethoxy)spiro[chromeno[2,3-b]pyridine-5,4′-[1,3]oxazol]-2′-amine]: the IC50 in assay [1] was determined as 89.6 nM; in assay [2] (HEK293, average IC50) it was 629 nM.

As to `CC1(C)C[C@H](c2cc(F)c3c(c2)[C@]2(COC(N)=N2)c2cc(-c4cnccn4)ccc2O3)CCO1` [Example 450, (4S)-2′-((4R)-2,2-dimethyltetrahydro-2H-pyran-4-yl)-4′-fluoro-7′-(2-pyrazinyl)spiro[1,3-oxazole-4,9′-xanthen]-2-amine], the IC50 was determined as 2.4 nM in assay [1] and 17.7 nM in assay [2] (setting [3]).

For `NC1=N[C@@]2(CO1)c1cc(-c3cc(Cl)cnc3F)ccc1Oc1ncc(C3=CCOCC3)cc12` [Example 454, (5S)-7-(5-chloro-2-fluoro-3-pyridinyl)-3-(3,6-dihydro-2H-pyran-4-yl)spiro[chromeno[2,3-b]pyridine-5,4′-[1,3]oxazol]-2′-amine], the IC50 in assay [1] was found to be 0.9 nM; in assay [2] (setting [3]), 3.2 nM.

On to `NC1=N[C@]2(CO1)c1cc(N3CCOCC3)ccc1Oc1cc(F)c(-c3cncnc3)cc12` [Example 335, (4S)-3′-fluoro-7′-(4-morpholinyl)-2′-(5-pyrimidinyl)spiro[1,3-oxazole-4,9′-xanthen]-2-amine], for which the IC50 in assay [1] is 16.4 nM; in assay [2] (HEK293, average IC50), 43.3 nM.

On to `CC1(C)CCCN(c2cnc3c(c2)[C@]2(COC(N)=N2)c2cc(-c4cccnc4F)ccc2O3)C1` [Example 483, (5S)-3-(3,3-dimethyl-1-piperidinyl)-7-(2-fluoro-3-pyridinyl)spiro[chromeno[2,3-b]pyridine-5,4′-[1,3]oxazol]-2′-amine], for which the IC50 was 3.4 nM in assay [1] and 22.3 nM in assay [2] (setting [3]).

Regarding `NC1=N[C@@]2(CS1)c1cc(-c3cccnc3)ccc1Oc1c2cc(-c2ccnc(F)c2)nc1F` [Example 1030, (5S)-1-fluoro-3-(2-fluoro-4-pyridinyl)-7-(3-pyridinyl)spiro[chromeno[2,3-c]pyridine-5,4′-[1,3]thiazol]-2′-amine], the IC50 in assay [1] was found to be 0.2 nM; in assay [2] (HEK293, average IC50), 5 nM.

Regarding `COc1cc(F)c2c(c1)[C@]1(COC(N)=N1)c1cc(-c3cncc(C#CC(C)(C)OC)c3)ccc1O2` [Example 823, (4S)-4′-fluoro-2′-methoxy-7′-(5-(3-methoxy-3-methyl-1-butyn-1-yl)-3-pyridinyl)spiro[1,3-oxazole-4,9′-xanthen]-2-amine], the IC50 in assay [1] amounted to 101 nM; in assay [2] (HEK293, average IC50) it was 4300 nM.

On to `NC1=N[C@@]2(CO1)c1cc(-c3cccnc3F)ccc1Oc1c2cc(C2=CCOCC2)nc1F` [Example 130, (S)-3-(3,6-dihydro-2H-pyran-4-yl)-1-fluoro-7-(2-fluoropyridin-3-yl)-5′H-spiro[chromeno[2,3-c]pyridine-5,4′-oxazol]-2′-amine], for which the IC50 was 0.4 nM in assay [1] and 2.1 nM in assay [2] (setting [3]).

With `NC1=N[C@@]2(CO1)c1cc(-c3cccnc3F)ccc1Oc1c(F)cc(-c3ccnc(F)c3)cc12` [Example 451, (4S)-4′-fluoro-7′-(2-fluoro-3-pyridinyl)-2′-(2-fluoro-4-pyridinyl)spiro[1,3-oxazole-4,9′-xanthen]-2-amine], the IC50 in assay [1] is 0.5 nM; in assay [2] (setting [3]), 10.3 nM.

For the compound `Cc1ccc(-c2ccc3c(c2)[C@@]2(COC(N)=N2)c2cc(C4=CCOCC4)cnc2O3)o1` [Example 324, (5S)-3-(3,6-dihydro-2H-pyran-4-yl)-7-(5-methyl-2-furanyl)spiro[chromeno[2,3-b]pyridine-5,4′-[1,3]oxazol]-2′-amine], the IC50 came to 42 nM in assay [1] and 158 nM in assay [2] (HEK293, average IC50).

Turning to `CC1(/C=C/c2cnc3c(c2)[C@]2(COC(N)=N2)c2cc(-c4cccnc4F)ccc2O3)COC1` [Example 175, (5S)-7-(2-fluoro-3-pyridinyl)-3-((E)-2-(3-methyl-3-oxetanyl)ethenyl)spiro[chromeno[2,3-b]pyridine-5,4′-[1,3]oxazol]-2′-amine], the IC50 was 0.5 nM in assay [1] and 1 nM in assay [2] (HEK293, average IC50).

Take `CC(C)(C)/C=C/c1cc2c(cn1)Oc1ccc(-c3cncc(F)c3)cc1[C@@]21COC(N)=N1` [Example 372, (5S)-3-((1E)-3,3-dimethyl-1-buten-1-yl)-7-(5-fluoro-3-pyridinyl)spiro[chromeno[2,3-c]pyridine-5,4′-[1,3]oxazol]-2′-amine]: the IC50 in assay [1] came out at 0.8 nM; in assay [2] (HEK293, average IC50) it was 14.9 nM.

With `CC1(C#Cc2cc(F)c3c(c2)[C@]2(COC(N)=N2)c2cc(-c4cncc(F)c4)ccc2O3)COC1` [Example 599, (4S)-4′-fluoro-7′-(5-fluoro-3-pyridinyl)-2′-((3-methyl-3-oxetanyl)ethynyl)spiro[1,3-oxazole-4,9′-xanthen]-2-amine], the IC50 in assay [1] is 1.1 nM; in assay [2] (setting [3]), 11 nM.
